Measurements from the kinase profiling compilation of Christmann-Franck et al. (2016).

Columns and labels:
Test in all cases: radiometric filter-binding kinase assay, Kinase HotSpot
Conditions in all cases: compound 0.5 µM; ATP 10 µM
DDR2 (human) = DDR2 (human) (UniProt Q16832)
EPHA7 (human) = EPHA7 (human) (UniProt Q15375)
MST4 (human) = MST4 (human) (UniProt Q9P289)
NEK9 (human) = NEK9 (human) (UniProt Q8TD19)
AXL (human) = AXL (human) (UniProt P30530)
FGFR2 (human) = FGFR2 (human) (UniProt P21802)
TBK1 (human) = TBK1 (human) (UniProt Q9UHD2)
MARK4 (human) = MARK4 (human) (UniProt Q96L34)
STK25 (human) = STK25 (human) (UniProt O00506)
SGK3 (human) = SGK3 (human) (UniProt Q96BR1)
CDK7 CCNH MNAT1 (human) = CDK7 CCNH MNAT1 (human) (UniProt P50613+P51948+P51946)
Chain of CDK7 CCNH MNAT1 (human) (P50613 whole entry, looked up): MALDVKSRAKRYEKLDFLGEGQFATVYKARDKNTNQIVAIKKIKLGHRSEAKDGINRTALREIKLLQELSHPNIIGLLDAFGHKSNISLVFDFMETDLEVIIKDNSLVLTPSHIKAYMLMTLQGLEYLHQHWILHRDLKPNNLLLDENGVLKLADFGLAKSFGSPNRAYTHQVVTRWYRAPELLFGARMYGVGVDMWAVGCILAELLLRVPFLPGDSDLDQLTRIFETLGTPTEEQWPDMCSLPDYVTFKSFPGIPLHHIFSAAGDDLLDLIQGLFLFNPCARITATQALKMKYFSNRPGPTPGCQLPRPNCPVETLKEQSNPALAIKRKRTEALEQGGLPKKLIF
Chain of CDK7 CCNH MNAT1 (human) (P51946 whole entry, looked up): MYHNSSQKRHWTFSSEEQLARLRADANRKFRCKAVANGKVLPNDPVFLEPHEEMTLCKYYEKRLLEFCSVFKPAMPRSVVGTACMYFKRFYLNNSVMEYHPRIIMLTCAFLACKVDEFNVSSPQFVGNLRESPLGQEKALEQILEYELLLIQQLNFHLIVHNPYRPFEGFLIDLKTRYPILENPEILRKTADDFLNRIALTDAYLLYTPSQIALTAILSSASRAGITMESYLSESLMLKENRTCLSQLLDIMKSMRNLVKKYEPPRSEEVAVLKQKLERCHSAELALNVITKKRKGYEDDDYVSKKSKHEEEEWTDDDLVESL
Chain of CDK7 CCNH MNAT1 (human) (P51948 whole entry, looked up): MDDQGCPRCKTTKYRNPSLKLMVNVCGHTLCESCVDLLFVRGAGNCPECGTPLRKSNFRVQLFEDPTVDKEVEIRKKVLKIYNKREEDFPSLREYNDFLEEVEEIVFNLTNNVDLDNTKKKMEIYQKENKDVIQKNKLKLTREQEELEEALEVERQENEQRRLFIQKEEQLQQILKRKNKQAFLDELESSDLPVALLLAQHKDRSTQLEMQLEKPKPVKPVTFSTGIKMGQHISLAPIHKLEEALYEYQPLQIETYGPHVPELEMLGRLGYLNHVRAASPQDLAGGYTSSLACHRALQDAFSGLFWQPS

DCLK2 (human) = DCLK2 (human) (UniProt Q8N568)
Chain of DCLK2 (human) (Q8N568 whole entry, looked up): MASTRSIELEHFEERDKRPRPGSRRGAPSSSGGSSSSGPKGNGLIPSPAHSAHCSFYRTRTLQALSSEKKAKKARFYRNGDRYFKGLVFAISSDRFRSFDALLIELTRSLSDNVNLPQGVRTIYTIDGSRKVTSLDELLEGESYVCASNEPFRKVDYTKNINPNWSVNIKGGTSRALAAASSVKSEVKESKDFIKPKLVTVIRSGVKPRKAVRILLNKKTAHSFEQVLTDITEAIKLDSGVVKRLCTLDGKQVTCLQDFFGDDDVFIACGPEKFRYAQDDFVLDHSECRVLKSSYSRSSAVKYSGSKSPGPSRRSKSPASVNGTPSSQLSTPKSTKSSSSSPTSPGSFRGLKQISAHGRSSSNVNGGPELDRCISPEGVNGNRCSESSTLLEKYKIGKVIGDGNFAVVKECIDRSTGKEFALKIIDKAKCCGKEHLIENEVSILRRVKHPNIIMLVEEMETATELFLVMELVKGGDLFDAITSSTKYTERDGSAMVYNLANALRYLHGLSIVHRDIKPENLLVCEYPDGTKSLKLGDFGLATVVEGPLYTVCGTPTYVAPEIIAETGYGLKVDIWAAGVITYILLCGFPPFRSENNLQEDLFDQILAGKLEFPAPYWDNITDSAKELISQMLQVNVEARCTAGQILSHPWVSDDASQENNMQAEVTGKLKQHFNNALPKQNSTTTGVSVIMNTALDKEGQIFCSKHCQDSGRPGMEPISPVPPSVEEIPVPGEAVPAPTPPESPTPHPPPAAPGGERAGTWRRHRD

CDK5 CDK5R1 p35 (human) = CDK5 CDK5R1 p35 (human) (UniProt Q00535+Q15078)
RPS6KB1 (human) = RPS6KB1 (human) (UniProt P23443)
FYN (human) = FYN (human) (UniProt P06241)
IKBKB (human) = IKBKB (human) (UniProt O14920)
SIK2 (human) = SIK2 (human) (UniProt Q9H0K1)
HIPK1 (human) = HIPK1 (human) (UniProt Q86Z02)
Chain of HIPK1 (human) (Q86Z02 whole entry, looked up): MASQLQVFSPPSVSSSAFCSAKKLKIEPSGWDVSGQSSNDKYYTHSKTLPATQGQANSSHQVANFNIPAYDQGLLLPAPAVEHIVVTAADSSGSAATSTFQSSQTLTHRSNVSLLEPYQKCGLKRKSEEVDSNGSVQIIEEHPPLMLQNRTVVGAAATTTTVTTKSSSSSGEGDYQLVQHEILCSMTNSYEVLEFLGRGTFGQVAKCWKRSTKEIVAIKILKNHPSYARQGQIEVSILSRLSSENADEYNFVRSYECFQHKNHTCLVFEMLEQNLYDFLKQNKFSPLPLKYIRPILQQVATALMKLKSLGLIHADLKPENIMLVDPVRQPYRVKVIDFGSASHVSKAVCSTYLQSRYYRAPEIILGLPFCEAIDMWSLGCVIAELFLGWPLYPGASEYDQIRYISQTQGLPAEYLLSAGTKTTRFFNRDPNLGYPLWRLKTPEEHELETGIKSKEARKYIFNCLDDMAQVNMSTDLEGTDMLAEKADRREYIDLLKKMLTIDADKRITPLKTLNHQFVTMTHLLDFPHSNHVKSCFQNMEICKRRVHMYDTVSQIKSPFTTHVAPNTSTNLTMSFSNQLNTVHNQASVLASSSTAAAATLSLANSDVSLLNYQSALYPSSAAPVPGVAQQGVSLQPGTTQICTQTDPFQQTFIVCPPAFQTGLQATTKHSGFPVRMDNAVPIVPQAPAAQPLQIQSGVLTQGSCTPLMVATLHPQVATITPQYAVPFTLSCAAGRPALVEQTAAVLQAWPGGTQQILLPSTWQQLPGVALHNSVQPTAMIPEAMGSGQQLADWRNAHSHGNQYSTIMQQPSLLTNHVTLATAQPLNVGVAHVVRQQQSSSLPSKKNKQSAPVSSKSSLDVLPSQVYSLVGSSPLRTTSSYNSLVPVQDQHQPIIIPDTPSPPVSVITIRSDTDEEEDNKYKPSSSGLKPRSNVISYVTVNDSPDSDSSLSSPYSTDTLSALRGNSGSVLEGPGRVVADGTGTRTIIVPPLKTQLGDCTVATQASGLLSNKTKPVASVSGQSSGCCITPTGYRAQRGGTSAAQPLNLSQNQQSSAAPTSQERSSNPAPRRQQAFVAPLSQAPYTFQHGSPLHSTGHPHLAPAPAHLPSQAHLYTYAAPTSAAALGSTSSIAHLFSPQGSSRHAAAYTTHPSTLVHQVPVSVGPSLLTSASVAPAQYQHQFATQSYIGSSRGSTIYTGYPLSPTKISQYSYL

BLK (human) = BLK (human) (UniProt P51451)
Chain of BLK (human) (P51451 whole entry, looked up): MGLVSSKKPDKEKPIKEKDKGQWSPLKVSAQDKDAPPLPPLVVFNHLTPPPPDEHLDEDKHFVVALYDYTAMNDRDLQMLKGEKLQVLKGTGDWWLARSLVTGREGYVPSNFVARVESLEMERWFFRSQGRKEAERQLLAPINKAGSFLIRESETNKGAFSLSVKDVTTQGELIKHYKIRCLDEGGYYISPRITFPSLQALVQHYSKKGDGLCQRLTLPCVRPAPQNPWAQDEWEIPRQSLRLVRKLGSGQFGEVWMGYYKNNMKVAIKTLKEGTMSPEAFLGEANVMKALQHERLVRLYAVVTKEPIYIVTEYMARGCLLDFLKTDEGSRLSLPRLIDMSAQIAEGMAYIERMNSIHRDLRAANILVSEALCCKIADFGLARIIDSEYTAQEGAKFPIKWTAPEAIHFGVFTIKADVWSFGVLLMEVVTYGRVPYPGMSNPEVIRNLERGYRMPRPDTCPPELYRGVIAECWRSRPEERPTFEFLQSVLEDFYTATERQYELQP

PRKCD (human) = PRKCD (human) (UniProt Q05655)
INSR (human) = INSR (human) (UniProt P06213)
MKNK2 (human) = MKNK2 (human) (UniProt Q9HBH9)
TSSK2 (human) = TSSK2 (human) (UniProt Q96PF2)
PLK1 (human) = PLK1 (human) (UniProt P53350)
STK17A (human) = STK17A (human) (UniProt Q9UEE5)
PAK6 (human) = PAK6 (human) (UniProt Q9NQU5)
SRPK3 (human) = SRPK3 (human) (UniProt Q9UPE1)
SRPK1 (human) = SRPK1 (human) (UniProt Q96SB4)
GSK3B (human) = GSK3B (human) (UniProt P49841)
Chain of GSK3B (human) (P49841 whole entry, looked up): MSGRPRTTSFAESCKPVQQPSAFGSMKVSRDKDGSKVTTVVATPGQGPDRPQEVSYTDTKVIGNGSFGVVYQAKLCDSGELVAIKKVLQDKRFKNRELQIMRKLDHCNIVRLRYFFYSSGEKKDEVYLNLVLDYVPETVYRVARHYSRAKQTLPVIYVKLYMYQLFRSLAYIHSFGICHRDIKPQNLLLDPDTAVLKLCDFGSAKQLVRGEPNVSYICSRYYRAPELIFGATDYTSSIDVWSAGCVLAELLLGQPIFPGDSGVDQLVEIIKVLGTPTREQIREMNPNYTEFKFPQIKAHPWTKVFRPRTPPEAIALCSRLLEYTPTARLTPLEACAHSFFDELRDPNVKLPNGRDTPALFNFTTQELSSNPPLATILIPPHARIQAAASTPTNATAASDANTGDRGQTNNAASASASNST

PLK2 (human) = PLK2 (human) (UniProt Q9NYY3)
AKT1 (human) = AKT1 (human) (UniProt P31749)
Chain of AKT1 (human) (P31749 whole entry, looked up): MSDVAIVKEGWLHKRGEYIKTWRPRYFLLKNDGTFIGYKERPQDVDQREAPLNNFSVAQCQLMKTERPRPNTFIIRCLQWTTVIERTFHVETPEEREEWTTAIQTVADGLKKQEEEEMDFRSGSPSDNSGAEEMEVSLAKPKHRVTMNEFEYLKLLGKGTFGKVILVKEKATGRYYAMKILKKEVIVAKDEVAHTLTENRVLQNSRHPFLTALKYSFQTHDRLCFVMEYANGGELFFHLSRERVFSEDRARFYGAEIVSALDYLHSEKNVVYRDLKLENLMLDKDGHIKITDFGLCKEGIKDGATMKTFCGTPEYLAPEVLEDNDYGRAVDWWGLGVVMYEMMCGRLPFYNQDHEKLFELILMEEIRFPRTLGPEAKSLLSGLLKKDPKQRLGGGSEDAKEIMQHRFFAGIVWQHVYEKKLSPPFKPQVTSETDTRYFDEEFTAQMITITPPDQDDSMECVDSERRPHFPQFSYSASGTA

GRK7 (human) = GRK7 (human) (UniProt Q8WTQ7)
Chain of GRK7 (human) (Q8WTQ7 whole entry, looked up): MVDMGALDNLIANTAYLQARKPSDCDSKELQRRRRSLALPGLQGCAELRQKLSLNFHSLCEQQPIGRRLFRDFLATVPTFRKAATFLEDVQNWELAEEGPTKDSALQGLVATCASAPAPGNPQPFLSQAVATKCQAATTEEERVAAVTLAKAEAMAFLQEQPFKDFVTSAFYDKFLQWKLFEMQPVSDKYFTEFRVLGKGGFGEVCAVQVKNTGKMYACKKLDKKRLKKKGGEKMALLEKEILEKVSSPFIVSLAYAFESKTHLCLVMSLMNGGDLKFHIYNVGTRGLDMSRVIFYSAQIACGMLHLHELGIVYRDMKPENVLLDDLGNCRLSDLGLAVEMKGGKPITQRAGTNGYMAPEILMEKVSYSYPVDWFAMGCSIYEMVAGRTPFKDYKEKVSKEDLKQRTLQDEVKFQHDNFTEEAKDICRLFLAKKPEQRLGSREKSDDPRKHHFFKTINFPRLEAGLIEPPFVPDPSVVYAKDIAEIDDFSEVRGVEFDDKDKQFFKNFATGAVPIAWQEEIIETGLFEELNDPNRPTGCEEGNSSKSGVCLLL

BTK (human) = BTK (human) (UniProt Q06187)
MAPK11 (human) = MAPK11 (human) (UniProt Q15759)
DAPK3 (human) = DAPK3 (human) (UniProt O43293)
EPHA5 (human) = EPHA5 (human) (UniProt P54756)
PRKD2 (human) = PRKD2 (human) (UniProt Q9BZL6)
FES (human) = FES (human) (UniProt P07332)
CDK4 CCND1 (human) = CDK4 CCND1 (human) (UniProt P24385+P11802)
MAPK13 (human) = MAPK13 (human) (UniProt O15264)
CSNK1D (human) = CSNK1D (human) (UniProt P48730)
CDK4 CCND3 (human) = CDK4 CCND3 (human) (UniProt P30281+P11802)

With `O=C1Cc2c([nH]c3ccc([N+](=O)[O-])cc23)-c2ccccc2N1` the residual activity (DDR2 (human)) was 103%, the residual activity (EPHA7 (human)) was 95% and the residual activity (MST4 (human)) was 78.6%. It also gave a residual activity (NEK9 (human)) of 99.3%, a residual activity (AXL (human)) of 100% and a residual activity (FGFR2 (human)) of 96.7%. The residual activity (TBK1 (human)) was 82.4%, the residual activity (MARK4 (human)) was 55.4% and the residual activity (STK25 (human)) was 83.6%. The residual activity (SGK3 (human)) was 102%, the residual activity (CDK7 CCNH MNAT1 (human)) was 99.9% and the residual activity (DCLK2 (human)) was 105%. The residual activity (CDK5 CDK5R1 p35 (human)) was 7.98%, the residual activity (RPS6KB1 (human)) was 103% and the residual activity (FYN (human)) was 53.1%. The residual activity (IKBKB (human)) was 102%, the residual activity (SIK2 (human)) was 56.5% and the residual activity (HIPK1 (human)) was 98.5%. The residual activity (BLK (human)) was 94.2%, the residual activity (PRKCD (human)) was 79.8% and the residual activity (INSR (human)) was 101%. It also gave a residual activity (MKNK2 (human)) of 92.9%, a residual activity (TSSK2 (human)) of 88.3% and a residual activity (PLK1 (human)) of 98%. It also gave a residual activity (STK17A (human)) of 46.4%, a residual activity (PAK6 (human)) of 101% and a residual activity (SRPK3 (human)) of 92.7%. For the same compound, the residual activity (SRPK1 (human)) was 100%, the residual activity (GSK3B (human)) was 2.68% and the residual activity (PLK2 (human)) was 106%. The residual activity (AKT1 (human)) was 107%, the residual activity (GRK7 (human)) was 99% and the residual activity (BTK (human)) was 98.2%. The residual activity (MAPK11 (human)) was 102%, the residual activity (DAPK3 (human)) was 103% and the residual activity (EPHA5 (human)) was 98.6%. The residual activity (PRKD2 (human)) was 101% and the residual activity (FES (human)) was 46.3%.

Work on `Nc1nc(Nc2ccc(S(N)(=O)=O)cc2)nn1C(=O)c1c(F)cccc1F` yielded a residual activity (DDR2 (human)) of 113%, a residual activity (EPHA7 (human)) of 68.7% and a residual activity (MST4 (human)) of 64.2%. The residual activity (NEK9 (human)) was 82.2%, the residual activity (AXL (human)) was 94.2% and the residual activity (FGFR2 (human)) was 79.7%. For the same compound, the residual activity (TBK1 (human)) was 80%, the residual activity (MARK4 (human)) was 48% and the residual activity (STK25 (human)) was 82.3%. The residual activity (CDK4 CCND1 (human)) was 20%, the residual activity (SGK3 (human)) was 114% and the residual activity (MAPK13 (human)) was 94.8%. For the same compound, the residual activity (CDK7 CCNH MNAT1 (human)) was 81.1%, the residual activity (DCLK2 (human)) was 85.3% and the residual activity (CDK5 CDK5R1 p35 (human)) was 0.212%. It also gave a residual activity (RPS6KB1 (human)) of 92.1%, a residual activity (FYN (human)) of 78.6% and a residual activity (IKBKB (human)) of 105%. For the same compound, the residual activity (SIK2 (human)) was 84.1%, the residual activity (HIPK1 (human)) was 106% and the residual activity (BLK (human)) was 90.1%. The residual activity (PRKCD (human)) was 81.2%, the residual activity (CSNK1D (human)) was 94.5% and the residual activity (INSR (human)) was 94.9%. The residual activity (MKNK2 (human)) was 95.9%, the residual activity (TSSK2 (human)) was 103% and the residual activity (PLK1 (human)) was 97.5%. It also gave a residual activity (STK17A (human)) of 83.9%, a residual activity (CDK4 CCND3 (human)) of 34.7% and a residual activity (PAK6 (human)) of 101%. The residual activity (SRPK3 (human)) was 86.2%, the residual activity (SRPK1 (human)) was 86.4% and the residual activity (GSK3B (human)) was 22%. The residual activity (PLK2 (human)) was 94.2%, the residual activity (AKT1 (human)) was 120% and the residual activity (GRK7 (human)) was 65.9%. For the same compound, the residual activity (BTK (human)) was 87.1%, the residual activity (MAPK11 (human)) was 94% and the residual activity (DAPK3 (human)) was 99.4%. It also gave a residual activity (EPHA5 (human)) of 92.2% and a residual activity (PRKD2 (human)) of 86%.
